Measured values as given in the supplement of paper PMC10307832.

What was measured:
Assay in all cases: relative viability (nuclei count vs DMSO), 5 days (fraction); higher = more cells survive
BX 795 = compound: O=C(NCCCNc1nc(Nc2cccc(NC(=O)N3CCCC3)c2)ncc1I)c1cccs1 [BX 795]
Outline: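 Viability was read as treated-well nuclei divided by vehicle-well nuclei, using the median across plates. Lung cancer cell lines in 1536-well plates were kept overnight at 37 °C, pinned with five √10-spaced library-drug doses, and after 5 days were Hoechst-stained, imaged at 4× and counted in MetaXpress. Plates passed only with control CV below 25% and at least one doubling.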

BX 795 + Phenformin = compound: O=C(NCCCNc1nc(Nc2cccc(NC(=O)N3CCCC3)c2)ncc1I)c1cccs1 [BX 795] + N=C(N)NC(=N)NCCc1ccccc1 [Phenformin] (partner 250 µM)
Outline: (§1)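 Lung cancer cell lines were seeded in 1536-well plates and dosed by pin tool the next day, with either a single drug or a fixed anchor-drug dose combined with five library-drug doses (not always all listed) spaced in √10 steps. Five days later, one step fixed the cells and stained their nuclei (final 0.05% Triton X-100, 1% formaldehyde, 1 ug/ml Hoechst), and nuclei were counted on 4× images. Relative viability is the nuclei count in treated wells divided by the count in vehicle wells, and each value is the median of duplicate plates.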

BX 795 + Linsitinib = compound: O=C(NCCCNc1nc(Nc2cccc(NC(=O)N3CCCC3)c2)ncc1I)c1cccs1 [BX 795] + C[C@]1(O)C[C@@H](c2nc(-c3ccc4ccc(-c5ccccc5)nc4c3)c3c(N)nccn32)C1 [Linsitinib] (partner 1 µM)
Outline: as §1

BX 795 + Dasatinib = compound: O=C(NCCCNc1nc(Nc2cccc(NC(=O)N3CCCC3)c2)ncc1I)c1cccs1 [BX 795] + Cc1nc(Nc2ncc(C(=O)Nc3c(C)cccc3Cl)s2)cc(N2CCN(CCO)CC2)n1 [Dasatinib] (partner 0.075 µM)
Outline: as §1

BX 795 + AZD7762 = compound: O=C(NCCCNc1nc(Nc2cccc(NC(=O)N3CCCC3)c2)ncc1I)c1cccs1 [BX 795] + NC(=O)Nc1cc(-c2cccc(F)c2)sc1C(=O)N[C@H]1CCCNC1 [AZD7762] (partner 0.2 µM)
Outline: as §1

Row | Cell Line | relative viability (BX 795; 0.04 µM) | relative viability (BX 795; 0.1265 µM) | relative viability (BX 795; 0.4 µM) | relative viability (BX 795; 1.265 µM) | relative viability (BX 795 + Phenformin; first compound 0.04 µM) | relative viability (BX 795 + Phenformin; first compound 0.1265 µM) | relative viability (BX 795 + Phenformin; first compound 0.4 µM) | relative viability (BX 795 + Phenformin; first compound 1.265 µM) | relative viability (BX 795 + Linsitinib; first compound 0.04 µM) | relative viability (BX 795 + Linsitinib; first compound 0.1265 µM) | relative viability (BX 795 + Linsitinib; first compound 0.4 µM) | relative viability (BX 795 + Linsitinib; first compound 1.265 µM) | relative viability (BX 795 + Dasatinib; first compound 0.04 µM) | relative viability (BX 795 + Dasatinib; first compound 0.1265 µM) | relative viability (BX 795 + Dasatinib; first compound 0.4 µM) | relative viability (BX 795 + Dasatinib; first compound 1.265 µM) | relative viability (BX 795 + AZD7762; first compound 0.04 µM) | relative viability (BX 795 + AZD7762; first compound 0.1265 µM) | relative viability (BX 795 + AZD7762; first compound 0.4 µM) | relative viability (BX 795 + AZD7762; first compound 1.265 µM)
1 | NCI-H1666 | 1.06 | 1.03 | 1.01 | 0.925 | 0.362 | 0.568 | 0.483 | 0.49 | 0.777 | 1.07 | 1.05 | 0.74 | 0.847 | 0.851 | 0.736 | 0.569 | 0.895 | 0.784 | 0.838 | 0.832
2 | NCI-H727 | 1.01 | 0.899 | 0.978 | 1 | 0.571 | 0.566 | 0.444 | 0.617 | 0.294 | 0.247 | 0.277 | 0.24 | 0.376 | 0.318 | 0.386 | 0.58 | 0.614 | 0.535 | 0.671 | 0.531
3 | RERF-LC-KJ | 1.06 | 0.949 | 1.02 | 0.908 | 0.473 | 0.424 | 0.452 | 0.282 | 0.881 | 0.891 | 0.94 | 0.874 | 0.873 | 0.899 | 0.707 | 0.648 | 1.16 | 1.05 | 1.11 | 0.86
4 | ABC-1 | 0.888 | 0.797 | 0.917 | 0.906 | 0.263 | 0.265 | 0.262 | 0.195 | 0.849 | 0.914 | 0.765 | 0.549 | 0.522 | 0.618 | 0.557 | 0.546 | 0.83 | 0.924 | 0.745 | 0.838
5 | PC-3 [JPC-3] | 1.07 | 0.979 | 1.04 | 1 | 0.484 | 0.439 | 0.492 | 0.483 | 1.02 | 1.02 | 0.979 | 0.976 | 1.02 | 1.04 | 0.979 | 0.975 | 0.809 | – | 0.685 | 0.802
6 | PC-14 | 0.948 | 0.997 | 0.944 | 0.719 | 0.533 | 0.488 | 0.633 | 0.289 | 0.923 | 0.917 | 0.879 | 0.75 | 0.278 | 0.249 | 0.228 | 0.177 | 0.369 | 0.383 | 0.335 | 0.282
7 | COR-L 105 | 0.985 | 0.868 | 0.776 | 0.661 | 0.42 | 0.531 | 0.407 | 0.351 | 1.08 | 0.768 | 0.849 | 0.447 | 0.367 | 0.357 | 0.278 | 0.255 | – | – | – | –
8 | SW 1573 | 0.918 | 0.984 | 1.1 | 0.651 | 0.396 | 0.351 | 0.34 | 0.18 | 0.962 | 0.873 | 1.02 | 0.629 | 0.512 | 0.456 | 0.452 | 0.161 | – | – | – | –
9 | NCI-H1793 | 1.09 | 0.917 | 1.05 | 0.808 | 0.358 | 0.35 | 0.366 | 0.289 | 0.874 | 1.06 | 1.01 | 0.507 | 0.408 | 0.403 | 0.361 | 0.356 | 0.425 | 0.447 | 0.484 | 0.487
10 | UMC-11 | 0.896 | 0.995 | 0.802 | 0.675 | 0.291 | 0.322 | 0.253 | 0.19 | 0.751 | 1.02 | 0.95 | 0.348 | 0.412 | 0.407 | 0.291 | 0.169 | – | – | – | –
11 | NCI-H520 | 0.99 | 1.04 | 0.869 | 0.733 | 0.699 | 0.658 | 0.4 | 0.233 | 0.746 | 1.06 | 0.859 | 0.359 | 0.199 | 0.194 | 0.376 | 0.162 | – | – | – | –
12 | NCI-H1650 | 0.915 | 1.05 | 0.8 | 0.778 | 0.484 | 0.417 | 0.393 | 0.239 | – | – | – | – | 0.317 | 0.276 | 0.291 | 0.258 | – | – | – | –
13 | COR-L23 | 1.04 | 1.04 | 1.05 | 0.669 | 0.391 | 0.411 | 0.431 | 0.234 | 0.909 | 0.827 | 0.961 | 0.4 | 0.533 | 0.496 | 0.382 | 0.298 | – | – | – | –
14 | IA-LM | 1.02 | 1.03 | 1.12 | 0.86 | – | – | – | – | 0.615 | 0.452 | 0.769 | 0.626 | – | – | – | – | – | – | – | –
15 | NCI-H2228 | 1.07 | 1.21 | 1.04 | 0.871 | 0.325 | 0.469 | 0.272 | 0.15 | 1.25 | 0.643 | 0.662 | 0.474 | 0.568 | 0.594 | 0.388 | 0.32 | – | – | – | –
16 | HCC-44 | 0.908 | 0.967 | 1.07 | 1.06 | 0.157 | 0.162 | 0.222 | 0.153 | 0.648 | 0.668 | 0.787 | 0.426 | – | – | – | – | 0.976 | 1 | 1.09 | 1.09
17 | ChaGo-K-1 | 0.947 | 1.06 | 0.959 | 0.981 | 0.449 | 0.471 | 0.494 | 0.472 | – | – | – | – | 0.5 | 0.586 | 0.507 | 0.546 | 0.797 | 0.864 | 0.858 | 0.815
18 | A549 | 1.01 | 1.08 | 0.97 | 0.671 | 0.23 | 0.15 | 0.271 | 0.112 | 0.579 | 0.646 | 0.574 | 0.552 | – | – | – | – | – | – | – | –
19 | SW 900 | 0.856 | 0.759 | 1.04 | 0.813 | 0.478 | 0.627 | 0.613 | 0.693 | – | – | – | – | 0.737 | 0.541 | 0.414 | 0.259 | 0.55 | – | 0.619 | 0.633
